Tests used:
Adenosine receptor A2a = Adenosine receptor A2a (Rattus norvegicus, UniProt P30543); assay: Binding affinity towards Adenosine A2A receptor of rat brain tissues using [3H]ZM-241385 as radioligand
Adenosine receptor A1 = molecular target: T1, Adenosine receptor A1 (Rattus norvegicus, UniProt P25099); assay: Binding affinity towards Adenosine A1 receptor of rat cerebral cortex using [3H]-DPCPX as radioligand
T1 sequence (P25099 whole entry): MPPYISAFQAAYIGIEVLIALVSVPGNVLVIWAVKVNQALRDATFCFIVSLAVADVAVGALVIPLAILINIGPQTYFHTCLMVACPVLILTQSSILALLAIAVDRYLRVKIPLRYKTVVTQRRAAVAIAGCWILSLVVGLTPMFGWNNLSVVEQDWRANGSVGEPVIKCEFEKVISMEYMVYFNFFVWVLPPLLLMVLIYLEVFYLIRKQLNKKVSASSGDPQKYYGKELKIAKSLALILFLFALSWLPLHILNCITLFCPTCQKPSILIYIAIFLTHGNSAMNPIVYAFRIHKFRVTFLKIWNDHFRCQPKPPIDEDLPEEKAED

Sequence of Adenosine receptor A2a (P30543 whole entry): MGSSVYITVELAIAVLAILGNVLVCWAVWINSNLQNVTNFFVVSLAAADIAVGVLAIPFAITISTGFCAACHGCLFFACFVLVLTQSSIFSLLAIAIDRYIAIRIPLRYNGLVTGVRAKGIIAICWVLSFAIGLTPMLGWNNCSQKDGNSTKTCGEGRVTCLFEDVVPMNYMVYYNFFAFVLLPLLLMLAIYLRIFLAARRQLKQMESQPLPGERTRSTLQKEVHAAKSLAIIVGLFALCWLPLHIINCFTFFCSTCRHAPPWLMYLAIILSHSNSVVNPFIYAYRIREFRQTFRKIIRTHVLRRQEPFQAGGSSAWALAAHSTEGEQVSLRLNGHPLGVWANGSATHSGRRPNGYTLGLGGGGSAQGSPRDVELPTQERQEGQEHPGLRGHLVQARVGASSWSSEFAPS

| SMILES | Ki (Adenosine receptor A2a) [nM] | Ki (Adenosine receptor A1) [nM] |
| --- | --- | --- |
| Nc1nc(C#CCOc2ccc(F)c(Cl)c2)cn2nc(-c3ccco3)nc12 | 310 | 4300 |
| CC(O)(C#Cc1cn2nc(-c3ccco3)nc2c(N)n1)c1ccccc1 (centres undefined) | 12 | 41 |
| CN(C)c1ccc(C(O)(C#Cc2cn3nc(-c4ccco4)nc3c(N)n2)C(F)(F)F)cc1 (centres undefined) | 1100 |  |
| Nc1nc(C#CC2(N)CCCCC2)cn2nc(-c3ccco3)nc12 | 210 | 35 |
| CC(C#Cc1cn2nc(-c3ccco3)nc2c(N)n1)OC(C)(C)C (centres undefined) | 37 | 96 |
| CC(O)(C#Cc1cn2nc(-c3ccco3)nc2c(N)n1)c1ccncc1 (centres undefined) | 25 | 170 |
| Nc1nc(C#CC(O)(c2ccccc2)C(F)(F)F)cn2nc(-c3ccco3)nc12 (centres undefined) | 74 | 2200 |
| Cn1nc(OCC#Cc2cn3nc(-c4ccco4)nc3c(N)n2)cc1C(F)(F)F | 89 | 1800 |
| CC(O)(C#Cc1cn2nc(-c3ccco3)nc2c(N)n1)c1csc2ccccc12 (centres undefined) | 33 | 340 |
| CC(O)(C#Cc1cn2nc(-c3ccco3)nc2c(N)n1)c1ccc([N+]2=CC=NC2)cc1 (centres undefined) | 33 | 110 |
| Nc1nc(C#CC(O)C2(O)CCC2)cn2nc(-c3ccco3)nc12 (centres undefined) | 12 | 2.5 |
| CC(O)(C#Cc1cn2nc(-c3ccco3)nc2c(N)n1)Cc1ccncc1 (centres undefined) | 1.1 | 100 |

Other lines, results leading:

| Ki (Adenosine receptor A2a) [nM] | Ki (Adenosine receptor A1) [nM] | SMILES |
| --- | --- | --- |
| 92 | 110 | Nc1nc(C#CCOc2cccnc2)cn2nc(-c3ccco3)nc12 |
| 390 | 530 | Nc1nc(C#CCOc2ccccc2)cn2nc(-c3ccco3)nc12 |
| > 1000 |  | Nc1nc(C#Cc2ccc(F)cc2F)cn2nc(-c3ccco3)nc12 |
| 260 | 73 | Nc1nc(C#CC(O)c2csc3ccccc23)cn2nc(-c3ccco3)nc12 (centres undefined) |
| 340 | 2400 | Nc1nc(C#CC(O)c2ccccc2)cn2nc(-c3ccco3)nc12 (centres undefined) |
| > 500 | > 500 | Nc1nc(C#CCO)cn2nc(-c3ccco3)nc12 |
| 280 | 680 | Nc1nc(C#CCC2CCCCC2)cn2nc(-c3ccco3)nc12 |
| 42 | 66 | CC(O)(C#Cc1cn2nc(-c3ccco3)nc2c(N)n1)c1ccc(O)cc1 (centres undefined) |
| 1600 |  | CC(O)(C#Cc1cn2nc(-c3ccco3)nc2c(N)n1)c1cccc(C(F)(F)F)c1F (centres undefined) |
| 3.7 | 24 | CC(C)CCC(C)(O)C#Cc1cn2nc(-c3ccco3)nc2c(N)n1 (centres undefined) |
| 9 | 33 | CCC(O)(C#Cc1cn2nc(-c3ccco3)nc2c(N)n1)CC |
| 30 | 72 | Nc1nc(C#CC(O)C2(O)CCCC2)cn2nc(-c3ccco3)nc12 (centres undefined) |
| 7 | 8 | CC(C)C(O)(C#Cc1cn2nc(-c3ccco3)nc2c(N)n1)C(C)C |
| 7.3 | 11 | Nc1nc(C#CC(O)C2(O)CCCCC2)cn2nc(-c3ccco3)nc12 (centres undefined) |
